Reference: US20090123940A1, “MOLECULES INVOLVED IN SYNAPTOGENESIS AND USES THEREFOR” (THE JOHNS HOPKINS UNIVERSITY, priority 2007, published 2009)

System: cultured cerebellar Purkinje cells
Experiment: Basal electrophysiological properties and Ca2+ imaging in cultured cerebellar Purkinje cells
Type: cell-based, mouse
Details: TAPI-2 10 μM; GM6001 1 μM; GM6001 control 1 μM; mean ± SEM
Description: Recording and Ca^2+ imaging in cerebellar cultures. Cultures of embryonic mouse cerebellum were prepared as previously described and recordings were performed according to our previously published method (Leitges et al., Neuron 44:585-94, 2004). […]. Test pulses were delivered using negative current pulses (300-700 nA, 30-80 msec duration). LTD-inducing pairing stimuli consisted of six, 3-s-long depolarizations to 0 mV, each delivered together with a test pulse of glutamate.
Membrane currents were recorded with an Axopatch 200A amplifier, and digitized at 10 kHz for exogenous glutamate responses and 20 kHz for mEPSCs. Signals were lowpass filtered at 5 kHz (1 kHz for mEPSCs) and acquired using Axograph X software (Axograph Scientific, Sydney, Australia). Recordings in which Rinput or Rseries varied by more than 10% were excluded from the analysis. For analysis of mEPSCs, Axograph X mini analysis software was used. This detected events based on closeness of fit of the mEPSC to a sliding template. Events smaller than − ? 4 pA were discarded. A separate template was created for each recording by averaging 30 of its most unambiguous mEPSCs as selected by eye.
Bis-Fura-2 ratio imaging of intracellular free Ca^2+ in the dendritic shafts of cultured Purkinje cells was accomplished by measuring the background corrected fluorescence ratio at 340 and 380 nm excitation using a cooled CCD camera system. In these experiments, EGTA was removed from the internal saline and replaced with 100 μM bis-Fura-2.

CC(C)C[C@H](CC(=O)NO)C(=O)N[C@H](C(=O)N[C@@H](C)C(=O)NCCN)C(C)(C)C [TAPI-2]
DHPG-evoked (dendritic Ca2+ transient): 231 ± 35 nM
Depol-evoked (dendritic Ca2+ transient): 604 ± 89 nM
Resting Ca2+: 109 ± 22 nM
mEPSC 10-90% rise: 1.8 ± 0.4 msec
mEPSC 50% decay: 7.7 ± 0.6 ms
mEPSC amp: 27 ± 7 pA
